Results: patent publication US20220071952A1, “METHODS OF TREATING AND PREVENTING HEPATOTOXICITY” (Natreon, Inc., priority 2020, published 2022)

How the values were obtained:
[1] = Body weight, food intake and water intake during alcohol-induced hepatotoxicity study (Example III); format: in vivo, Swiss Albino mice; conditions: for change in body weight / change in food intake / change in water intake: 10 mg/kg p.o. + alcohol, 15 days; for body weight / food intake / water intake: 10 mg/kg p.o. + alcohol 5 g/kg p.o. twice daily, mean ± SD
Method: Swiss Albino male and female mice weighing approximately 30±5 g, 2 month old mice were obtained from National Research Institute of Ayurveda for Drug Development (Govt. of India), Kolkata, and were housed in polypropylene cages at 22±3° C., relative air humidity of 45 to 55%, with 12.00 hr light & dark cycle (lighting on from 6:00 AM to 6:00 PM). Mice were provided a standard pellet chow diet (carbohydrate 65.5%, protein 17.6%, fat 6.6%) and distilled water ad libitum. The mice were acclimatized for one week in the laboratory conditions, before being used in the experiment. All experiments were conducted between 10.00 hr and 14.00 hr. Principles of laboratory animals care (NIH publication no. 85-23, revised 1985) were followed.
Vehicle control animals (“Con Veh”) were administered 0.3% CMC orally for 15 days.
Animals receiving ethanol (“Alc+0.3 CMC”, “3-OH-DBP+Alc”, “3,8-(OH)2-DBP+Alc”) were administered ethanol in 0.3% CMC orally as discussed above.
Results were expressed in terms of mean±SD (n=8). The data were subjected to one way ANOVA followed by Tukey's test using GraphPad Prism 4.0 software to establish statistical significance (*p<0.05, **p<0.01, ***p<0.001 vs. vehicle control; # p<0.05, ## p<0.01, ### p<0.001 vs. animals administered ethanol only).

[2] = system: paracetamol-induced hepatotoxicity in mice; experiment: Synergistic hepatoprotective activity of DBPs against paracetamol-induced hepatotoxicity (Example IV); format: in vivo; conditions: for ACP / ALP / ALT / AST / Total Protein: paracetamol 200 mg/kg, mean ± SEM, n=4
[3] = system: alcohol-induced hepatotoxicity in mice; experiment: Synergistic hepatoprotective activity of DBPs against alcohol-induced hepatotoxicity (Example IV); conditions: for ACP / ALP / ALT / AST / Total Protein: alcohol 5 g/kg, mean ± SEM, n=4
Method: Hepatotoxicity was induced by oral administration of alcohol (ethanol: 5 g/kg) from stock 400 mg/ml twice daily for 15 days.
3-OH-DBP and 3,8-(OH)2-DBP were each separately suspended in 0.3% CMC and administered at a dose of 10 mg/kg body weight per orally for 15 days. During the 15 days treatment, body weight, food intake, and water intake were monitored at regular intervals. Following 15 days of treatment physical parameters (relative organ weight) and biochemical parameters (plasma total protein content, ALT, AST, ALP, and ACP) were studied.
3-OH-DBP (2 mg/kg body weight, 10 mg/kg body weight);
3,8-(OH)2-DBP (10 mg/kg body weight, 50 mg/kg body weight); and

[4] = female mice, doses 3-OH-DBP 2, 3,8-(OH)2-DBP 10, 1:5 combination 12 mg/kg b.w.
[5] = female mice, doses 3-OH-DBP 10, 3,8-(OH)2-DBP 50, 1:5 combination 60 mg/kg b.w.
[6] = male mice, doses 3-OH-DBP 2, 3,8-(OH)2-DBP 10, 1:5 combination 12 mg/kg b.w.
[7] = male mice, doses 3-OH-DBP 10, 3,8-(OH)2-DBP 50, 1:5 combination 60 mg/kg b.w.
[8] = female mice, doses 3-OH-DBP 2, 3,8-(OH)2-DBP 10, combination 12 mg/kg b.w.
[9] = female mice, doses 3-OH-DBP 10, combination 60 mg/kg b.w.

## O=c1oc2cc(O)ccc2c2ccccc12 [3-OH-DBP, 3-hydroxy-dibenzo-alpha-pyrone]
[1]; female mice
  change in body weight: No significant change
  change in food intake: No significant change
  change in water intake: No significant change
[1]; female mice, Day 0
  body weight: 26.83 ± 1.60 gm
  food intake: 8.14 ± 1.67 gm
  water intake: 4.16 ± 0.60 mL
[1]; female mice, Day 5
  body weight: 25.5 ± 1.22 gm
  water intake: 4.32 ± 0.28 mL
[1]; female mice, Day 10
  body weight: 24.33 ± 1.97 gm
  food intake: 16.38 ± 1.18 gm
  water intake: 1.85 ± 0.30 mL
[1]; female mice, Day 15
  body weight: 25.17 ± 0.75 gm
  food intake: 15.88 ± 0.76 gm
  water intake: 1.84 ± 0.18 mL
[1]; male mice
  change in body weight: No significant change
  change in food intake: No significant change
  change in water intake: No significant change
[1]; male mice, Day 0
  body weight: 24.33 ± 2.25 gm
  food intake: 14.02 ± 0.06 gm
  water intake: 2.05 ± 0.23 mL
[1]; male mice, Day 5
  body weight: 24 ± 1.55 gm
  food intake: 14.18 ± 0.72 gm
  water intake: 2 ± 0.27 mL
[1]; male mice, Day 10
  body weight: 25.5 ± 1.05 gm
  food intake: 14.51 ± 0.77 gm
  water intake: 1.93 ± 0.23 mL
[1]; male mice, Day 15
  body weight: 25.3 ± 0.52 gm
  food intake: 14.45 ± 0.78 gm
  water intake: 1.98 ± 0.25 mL
[2]; [4]
  ACP, difference in values from paracetamol treated mice: A = (a-b = 4) U/L
  ALP, difference in values from paracetamol treated mice: A = (a-b = 21) IU/L
  ALT, difference in values from paracetamol treated mice: A = (a-b = 15) IU/L
  AST, difference in values from paracetamol treated mice: A = (a-b = 45) IU/L
  ACP: 12 ± 0.71***(b) U/L
  ALP: 77 ± 11***(b) IU/L
  ALT: 71 ± 9**(b) ^ IU/L
  AST: 98 ± 10**(b) IU/L
  Total Protein: 6.2 ± 0.16 g/dL
[2]; [5]
  ACP, difference in values from paracetamol treated mice: D = (a-e = 7.6) U/L
  ALP, difference in values from paracetamol treated mice: D = (a-e = 26) IU/L
  ALT, difference in values from paracetamol treated mice: D = (a-e = 36) IU/L
  AST, difference in values from paracetamol treated mice: D = (a-e = 71) IU/L
  ACP: 8.4 ± 1.2^#(e) ^ U/L
  ALP: 72 ± 6.9**(e) IU/L
  ALT: 50 ± 9.8*,^#(e) IU/L
  AST: 72 ± 6*,^#(e)^ IU/L
  Total Protein: 6.2 ± 0.02 g/dL
[2]; male and female mice, paracetamol study of Example IV
  Relative liver weight: significantly (p<0.01) increased
[2]; [6]
  ACP, difference in values from paracetamol treated mice: A = (a-b = 8.5) U/L
  ALP, difference in values from paracetamol treated mice: A = (a-b = 38.33) IU/L
  ALT, difference in values from paracetamol treated mice: A = (a-b = 7.29) IU/L
  AST, difference in values from paracetamol treated mice: A = (a-b = 30.67) IU/L
  ACP: 9.69 ± 0.32**,^##(b) U/L
  ALP: 90.17 ± 4.16***,^#(b) IU/L
  ALT: 60.34 ± 4.78 (b) IU/L
  AST: 71.38 ± 4.63^#(b)^ IU/L
  Total Protein: 7.28 ± 0.14 g/dL
[2]; [7]
  ACP, difference in values from paracetamol treated mice: D = (a-e = 5.44) U/L
  ALP, difference in values from paracetamol treated mice: D = (a-e = 43.75) IU/L
  ALT, difference in values from paracetamol treated mice: D = (a-e = 16.14) IU/L
  AST, difference in values from paracetamol treated mice: D = (a-e = 31.7) IU/L
  ACP: 12.75 ± 1.43 (e) U/L
  ALP: 84.75 ± 5.32*,^#(e)^ IU/L
  ALT: 51.49 ± 4.49 (e)^ IU/L
  AST: 70.35 ± 6.21(e)^ IU/L
  Total Protein: 7.34 ± 0.15 g/dL
[2]; paracetamol-induced hepatotoxicity, male and female mice
  hepatoprotective activity (conclusion, Tables 15 and 16): hepatoprotective activity in a dose dependent manner
[3]; alcohol-induced hepatotoxicity, male and female mice
  hepatoprotective activity (conclusion, Tables 17 and 18): hepatoprotective activity in a dose dependent manner
[3]; [8]
  ACP: 19.3 ± 1 (b) U/L
  ALP: 106.6 ± 8 (b) ^ IU/L
  ALT: 85.31 ± 7.89 (b) IU/L
  AST: 54.81 ± 8.13 (b)^ IU/L
  Total Protein: 7.21 ± 0.36 g/dL
  ACP, difference in values from alcohol treated mice: A = (a-b = 1.97) U/L
  ALP, difference in values from alcohol treated mice: A = (a-b = 33.4) IU/L
  ALT, difference in values from alcohol treated mice: A = (a-b = 3.53) IU/L
  AST, difference in values from alcohol treated mice: A = (a-b = 14.14) IU/L
[3]; [9]
  ACP: 12.1±***,^# (e) U/L
  ALP: 79 ± 11 (e) IU/L
  ALT: 57.15 ± 3.46 (e) IU/L
  AST: 41.11 ± 6.98 (e)^ IU/L
  Total Protein: 6.53 ± 0.32 g/dL
  ACP, difference in values from alcohol treated mice: D = (a-e = 8.9) U/L
  ALP, difference in values from alcohol treated mice: D = (a-e = 61) IU/L
  ALT, difference in values from alcohol treated mice: D = (a-e = 31.69) IU/L
  AST, difference in values from alcohol treated mice: D = (a-e = 27.84) IU/L
[3]; [6]
  ACP: 13.3 ± 1.03 (b) U/L
  ALP: 90.2 ± 6.68 (b) IU/L
  ALT: 74.9 ± 1.66 (b) IU/L
  AST: 46.5 ± 3.19 (b) IU/L
  Total Protein: 6.68 ± 0.43 g/dL
  ACP, difference in values from alcohol treated mice: A = (a-b = 5.3) U/L
  ALP, difference in values from alcohol treated mice: A = (a-b = 43.8) IU/L
  ALT, difference in values from alcohol treated mice: A = (a-b = 31.1) IU/L
  AST, difference in values from alcohol treated mice: A = (a-b = 13.5) IU/L
[3]; [7]
  ACP: 11.6 ± 0.89 (e) U/L
  ALP: 83.4 ± 4.87 (e) IU/L
  ALT: 65.4 ± 2.59(e) IU/L
  AST: 39.9 ± 5.30 (e) IU/L
  Total Protein: 8.24 ± 0.43 g/dL
  ACP, difference in values from alcohol treated mice: D = (a-e = 7) U/L
  ALP, difference in values from alcohol treated mice: D = (a-e = 50.6) IU/L
  ALT, difference in values from alcohol treated mice: D = (a-e = 40.6) IU/L
  AST, difference in values from alcohol treated mice: D = (a-e = 20.8) IU/L
